The values that follow come from patent publication US8153767B2 (priority 2006, dated 2012).

Converted amounts (≈) assume the structure as drawn.

Experiment [1] relates to rabbit antiserum (aflatoxin B1 hapten immunogen).
The test system of experiment [2] is mouse antiserum (aflatoxin B1 hapten immunogen).
The subject of experiment [3] is monoclonal antibody useful for detecting all aflatoxins (JP-A 4-360695). As to conditions: cited from earlier work.
The subject of experiment [4] is antibody AF-1 (JP-A 63-219394). The conditions noted are these: cited from earlier work.

Usually IC50 stands for the concentration that inhibits the measured activity by half. A lower IC50 goes with greater potency in that assay. Take `COc1cc2c(c3oc(=O)c4c(c13)CCC4=O)C1C=COC1O2` (stereo not drawn) [Aflatoxin B1]: the 50% inhibitory concentration (IC50) in experiment [1] and in experiment [2] was 0.07 ng/mL (≈ 0.224 nM) each time. Besides, the “crossreactivities in terms of IC50” value in experiment [3] is 0.44 ng/mL.
As to `COc1cc2c(c3oc(=O)c4c(c13)CCC4=O)C1CCOC1O2` (stereo not drawn) [Aflatoxin B2], the IC50 in experiment [1] was found to be 1.7 ng/mL (≈ 5.41 nM); in experiment [2], 1.5 ng/mL (≈ 4.77 nM). Moreover, the “crossreactivities in terms of IC50” value in experiment [3] was 2.1 ng/mL.
For the compound `COc1cc2c(c3oc(=O)c4c(c13)CCOC4=O)C1C=COC1O2` (stereo not drawn) [Aflatoxin G1], the IC50 came to 0.63 ng/mL (≈ 1.92 nM) in experiment [1] and 0.6 ng/mL (≈ 1.83 nM) in experiment [2]. For the same compound, the “ability to bind to G1 relative to its ability to bind to B1 or B2” value in experiment [4] is 1/10. Besides, the “crossreactivities in terms of IC50” value in experiment [3] was 2.4 ng/mL.
For the compound `COc1cc2c(c3oc(=O)c4c(c13)CCOC4=O)C1CCOC1O2` (stereo not drawn) [Aflatoxin G2], the 50% inhibitory concentration (IC50) in experiment [1] turned out to be 18 ng/mL (≈ 54.5 nM); in experiment [2], 16 ng/mL (≈ 48.4 nM). Moreover, the “crossreactivities in terms of IC50” value in experiment [3] was 5.2 ng/mL.
Take `COc1cc2c(c3oc(=O)c4c(c13)CCC4=O)C1(O)C=COC1O2` (stereo not drawn) [Aflatoxin M1]: the 50% inhibitory concentration (IC50) in experiment [1] was determined as 14 ng/mL (≈ 42.6 nM); in experiment [2], 11 ng/mL (≈ 33.5 nM).
